For one assay, the system named is AD/pABC3 (Control). The assay is described as follows: MIC, liquid microdilution. The class given is cell-based, Saccharomyces cerevisiae. The settings on record: 48 h. (Broth dilution looks for growth in wells or tubes with falling amounts of substance.)
Assay [1] has as its system AD/CDR1 (Wild type CaCdr1p). Briefly: MIC, liquid microdilution. The class given is cell-based, Saccharomyces cerevisiae. The conditions noted are these: 48 h.
A further assay has as its system EL1/TM2 (CaCdr1p G547R). Briefly: MIC, liquid microdilution. The class given is cell-based, Saccharomyces cerevisiae. The conditions noted are these: 48 h.
Another assay has as its system EL3 (CaCdr1p Q714K). Briefly: MIC, liquid microdilution. The class given is cell-based, Saccharomyces cerevisiae. The conditions noted are these: 48 h.
For the next assay, the system named is EL4-1 (CaCdr1p Q1226K). Briefly: MIC, liquid microdilution. The class given is cell-based, Saccharomyces cerevisiae. The settings on record: 48 h.
For another assay, the system named is EL4-2 (CaCdr1p Q1226R). Briefly: MIC, liquid microdilution. The class given is cell-based, Saccharomyces cerevisiae. The settings on record: 48 h.
The next assay has as its system EL6 (CaCdr1p Q1445R). The assay is described as follows: MIC, liquid microdilution. The class given is cell-based, Saccharomyces cerevisiae. The settings on record: 48 h.
The next assay concerns TM5 (CaCdr1p V674F). Briefly: MIC, liquid microdilution. The class given is cell-based, Saccharomyces cerevisiae. The settings on record: 48 h.
The test system of assay [2] is AD/CDR1 (Wild type CaCdr1p; AD/CaCDR1B). Briefly: Agarose diffusion FLC chemosensitization assay. The class given is cell-based, Saccharomyces cerevisiae. The conditions noted are these: ~6 nmole/disk, agarose diffusion, FLC 40 μg ml^−1.
For the next assay, the target named is Cdr1p ATPase (Candida albicans, UniProt P43071). Briefly: CaCdr1p ATPase inhibition assay. The class given is biochemical. The settings on record: read-out: IC50 Cdr1p ATPase; wild type CaCdr1p, oligomycin-sensitive ATPase, pH 7.5.
Cdr1p ATPase, sequence (P43071 whole entry): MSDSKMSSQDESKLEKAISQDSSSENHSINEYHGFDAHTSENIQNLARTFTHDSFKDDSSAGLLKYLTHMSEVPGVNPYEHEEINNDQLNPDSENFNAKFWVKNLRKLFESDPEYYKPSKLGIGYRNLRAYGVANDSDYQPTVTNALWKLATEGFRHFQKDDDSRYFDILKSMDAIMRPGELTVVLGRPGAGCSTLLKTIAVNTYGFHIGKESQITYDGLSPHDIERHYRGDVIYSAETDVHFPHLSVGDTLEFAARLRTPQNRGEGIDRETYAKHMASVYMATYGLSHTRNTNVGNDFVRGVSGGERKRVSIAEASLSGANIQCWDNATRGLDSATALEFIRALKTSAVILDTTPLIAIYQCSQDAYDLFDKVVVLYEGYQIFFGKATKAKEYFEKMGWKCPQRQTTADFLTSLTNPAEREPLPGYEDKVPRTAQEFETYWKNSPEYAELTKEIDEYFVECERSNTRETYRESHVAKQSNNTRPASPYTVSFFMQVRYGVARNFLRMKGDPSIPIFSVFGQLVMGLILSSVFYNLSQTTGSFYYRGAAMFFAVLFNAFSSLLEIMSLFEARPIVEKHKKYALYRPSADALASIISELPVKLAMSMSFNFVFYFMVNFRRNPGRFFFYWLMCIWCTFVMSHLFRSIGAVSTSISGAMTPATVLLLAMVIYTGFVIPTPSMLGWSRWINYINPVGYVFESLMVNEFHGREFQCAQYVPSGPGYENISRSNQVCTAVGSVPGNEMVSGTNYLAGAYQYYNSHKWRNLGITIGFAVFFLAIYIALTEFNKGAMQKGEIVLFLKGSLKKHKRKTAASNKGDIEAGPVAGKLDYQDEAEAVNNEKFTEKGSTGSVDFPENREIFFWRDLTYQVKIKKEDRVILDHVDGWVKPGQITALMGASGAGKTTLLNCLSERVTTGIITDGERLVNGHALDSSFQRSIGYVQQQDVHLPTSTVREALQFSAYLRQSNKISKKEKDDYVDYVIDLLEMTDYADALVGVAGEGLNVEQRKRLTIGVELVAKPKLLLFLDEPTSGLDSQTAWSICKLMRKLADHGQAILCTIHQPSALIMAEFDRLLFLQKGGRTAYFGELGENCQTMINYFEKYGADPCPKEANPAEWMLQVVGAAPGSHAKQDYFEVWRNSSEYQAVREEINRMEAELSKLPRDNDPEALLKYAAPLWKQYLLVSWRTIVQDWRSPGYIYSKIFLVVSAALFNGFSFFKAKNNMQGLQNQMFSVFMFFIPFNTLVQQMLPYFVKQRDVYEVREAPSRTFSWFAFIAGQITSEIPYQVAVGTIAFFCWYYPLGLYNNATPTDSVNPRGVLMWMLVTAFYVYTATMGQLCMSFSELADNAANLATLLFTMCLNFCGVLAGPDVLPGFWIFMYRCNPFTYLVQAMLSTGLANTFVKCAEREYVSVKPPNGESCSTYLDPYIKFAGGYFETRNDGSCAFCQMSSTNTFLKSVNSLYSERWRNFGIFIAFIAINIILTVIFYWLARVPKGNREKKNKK
Setting [3] is: AD/pABC3, Control, milbemycins and micafungin, I95, CSM pH 7.0, 30°C.
Where [4] appears, read: AD/CDR1, Wild type, milbemycins and micafungin, I95, CSM pH 7.0, 30°C.
Setting [5] is: EL1/TM2, G547R, milbemycins and micafungin, I95, CSM pH 7.0, 30°C.
The mark [6] stands for this setting: EL3, Q714K, milbemycins and micafungin, I95, CSM pH 7.0, 30°C.
[7] abbreviates: EL4-1, Q1226K, milbemycins and micafungin, I95, CSM pH 7.0, 30°C.
[8] abbreviates: EL4-2, Q1226R, milbemycins and micafungin, I95, CSM pH 7.0, 30°C.
Where [9] appears, read: EL6, Q1445R, milbemycins and micafungin, I95, CSM pH 7.0, 30°C.
Where [10] appears, read: TM5, V674F, milbemycins and micafungin, I95, CSM pH 7.0, 30°C.

The record followed here is article PMC3418399 (Molecular microbiology, 2012).

Some results are limits rather than exact numbers.

As usually defined, the MIC is the lowest concentration that inhibits growth of the organism. A lower MIC goes with a more susceptible organism. By IC50 is commonly meant the concentration that inhibits the measured activity by half.

Take `COC(=O)c1ccccc1-c1c2ccc(=N)cc-2oc2cc(N)ccc12` [Rhodamine 123]: the MIC against AD/pABC3 (Control) (Saccharomyces cerevisiae, pH 7) is 8 µM; in assay [1] (Saccharomyces cerevisiae, pH 7) it was 300 µM; with EL1/TM2 (CaCdr1p G547R) (Saccharomyces cerevisiae, pH 7) it was 150 µM; with EL3 (CaCdr1p Q714K) (Saccharomyces cerevisiae, pH 7), 200 µM; in the assay on EL4-1 (CaCdr1p Q1226K) (Saccharomyces cerevisiae, pH 7) it was 150 µM; against EL4-2 (CaCdr1p Q1226R) (Saccharomyces cerevisiae, pH 7), 200 µM. Also, the MIC turned out to be 200 µM against EL6 (CaCdr1p Q1445R) (Saccharomyces cerevisiae, pH 7) and 150 µM with TM5 (CaCdr1p V674F) (Saccharomyces cerevisiae, pH 7).

Turning to `CN1CCN(CCCN2c3ccccc3Sc3ccc(C(F)(F)F)cc32)CC1` [Trifluoperazine], the MIC against AD/pABC3 (Control) (Saccharomyces cerevisiae, pH 7) came to 5 µM; in assay [1] (Saccharomyces cerevisiae, pH 7), 40 µM; with EL1/TM2 (CaCdr1p G547R) (Saccharomyces cerevisiae, pH 7) it was 40 µM; in the assay on EL3 (CaCdr1p Q714K) (Saccharomyces cerevisiae, pH 7), 40 µM; in the assay on EL4-1 (CaCdr1p Q1226K) (Saccharomyces cerevisiae, pH 7), 40 µM; in the assay on EL4-2 (CaCdr1p Q1226R) (Saccharomyces cerevisiae, pH 7), 40 µM. In addition, the MIC was 80 µM against EL6 (CaCdr1p Q1445R) (Saccharomyces cerevisiae, pH 7) and 20 µM in the assay with TM5 (CaCdr1p V674F) (Saccharomyces cerevisiae, pH 7).

Regarding `C[C@@H](c1ncncc1F)[C@](O)(Cn1cncn1)c1ccc(F)cc1F` [Voriconazole], the MIC with AD/pABC3 (Control) (Saccharomyces cerevisiae, pH 7) amounted to 0.156 µg/mL; in assay [1] (Saccharomyces cerevisiae, pH 7), 8 µg/mL; with EL1/TM2 (CaCdr1p G547R) (Saccharomyces cerevisiae, pH 7) it was 2.5 µg/mL; against EL3 (CaCdr1p Q714K) (Saccharomyces cerevisiae, pH 7), 8 µg/mL; in the assay on EL4-1 (CaCdr1p Q1226K) (Saccharomyces cerevisiae, pH 7), 2.5 µg/mL; against EL4-2 (CaCdr1p Q1226R) (Saccharomyces cerevisiae, pH 7), 6 µg/mL. Besides, the MIC with EL6 (CaCdr1p Q1445R) (Saccharomyces cerevisiae, pH 7) came out at 10 µg/mL; in the assay with TM5 (CaCdr1p V674F) (Saccharomyces cerevisiae, pH 7), 4 µg/mL.

For D-NH2-FFKWQR(Mtr)KK-CONH2, in assay [2], the “chemosensitization of cells overexpressing CaCdr1p to FLC” value is listed as “chemosensitizing activity”.

For D-NH2-FFKWQRRR-CONH2, the IC50 with Cdr1p ATPase was 2 µM.

As for D-NH2-FFKWQRRR-CONH2 + Mtr [RC21], the IC50 with Cdr1p ATPase came out at 1.3 µM.

Regarding Enniatin, the MIC in the assay with AD/pABC3 (Control) (AD/pABC3, Control, cycloheximide, enniatin and FK506, CSM pH 7.0, 30°C) was 4 µg/mL; in [1] (AD/CDR1, Wild type, cycloheximide, enniatin and FK506, CSM pH 7.0, 30°C), 4 µg/mL; against EL1/TM2 (CaCdr1p G547R) (EL1/TM2, G547R, cycloheximide, enniatin and FK506, CSM pH 7.0, 30°C), 4 µg/mL; with EL3 (CaCdr1p Q714K) (EL3, Q714K, cycloheximide, enniatin and FK506, CSM pH 7.0, 30°C) it was 4 µg/mL; in the assay with EL4-1 (CaCdr1p Q1226K) (EL4-1, Q1226K, cycloheximide, enniatin and FK506, CSM pH 7.0, 30°C), 4 µg/mL; in the assay with EL4-2 (CaCdr1p Q1226R) (EL4-2, Q1226R, cycloheximide, enniatin and FK506, CSM pH 7.0, 30°C) it was 4 µg/mL. The MIC with EL6 (CaCdr1p Q1445R) (EL6, Q1445R, cycloheximide, enniatin and FK506, CSM pH 7.0, 30°C) worked out at 4 µg/mL; against TM5 (CaCdr1p V674F) (TM5, V674F, cycloheximide, enniatin and FK506, CSM pH 7.0, 30°C), 4 µg/mL.

With Milbemycin α25, the minimum inhibitory concentration (MIC) was 8 µg/mL in the assay on AD/pABC3 (Control) (setting [3]); 8 µg/mL in [1] (setting [4]); 8 µg/mL against EL1/TM2 (CaCdr1p G547R) (setting [5]); more than 8 µg/mL in the assay on EL3 (CaCdr1p Q714K) (setting [6]); 8 µg/mL against EL4-1 (CaCdr1p Q1226K) (setting [7]); more than 8 µg/mL with EL4-2 (CaCdr1p Q1226R) (setting [8]). The minimal inhibitory concentration (MIC) against EL6 (CaCdr1p Q1445R) (setting [9]) and against TM5 (CaCdr1p V674F) (setting [10]) was more than 8 µg/mL in each case.

Milbemycin α26: the MIC (with AD/pABC3 (Control) (setting [3]); in assay [1] (setting [4]); against EL1/TM2 (CaCdr1p G547R) (setting [5]); against EL3 (CaCdr1p Q714K) (setting [6]); in the assay on EL4-1 (CaCdr1p Q1226K) (setting [7]); against EL4-2 (CaCdr1p Q1226R) (setting [8])) was 8 µg/mL each time. Further, the MIC against EL6 (CaCdr1p Q1445R) (setting [9]) and with TM5 (CaCdr1p V674F) (setting [10]) was 8 µg/mL in each case.

On to Milbemycin β9, for which the MIC against AD/pABC3 (Control) (setting [3]) is 8 µg/mL; in assay [1] (setting [4]) it was more than 8 µg/mL; with EL1/TM2 (CaCdr1p G547R) (setting [5]) it was more than 8 µg/mL; in the assay on EL3 (CaCdr1p Q714K) (setting [6]), 8 µg/mL; against EL4-1 (CaCdr1p Q1226K) (setting [7]) it was more than 8 µg/mL; in the assay with EL4-2 (CaCdr1p Q1226R) (setting [8]) it was more than 8 µg/mL. Moreover, the MIC in the assay on EL6 (CaCdr1p Q1445R) (setting [9]) and in the assay on TM5 (CaCdr1p V674F) (setting [10]) was more than 8 µg/mL in each case.
